Experimental data reported in patent US20250215013A1, “SUBSTITUTED TRICYCLIC COMPOUNDS AS PARP INHIBITORS AND THE USE THEREOF” (IMPACT THERAPEUTICS (SHANGHAI), INC., priority 2022, published 2025).

These compounds were tested on MDA-MB-436 cells (assay: Growth inhibition assay against BRCA mutant human breast cancer MDA-MB-436 cell line (CCK-8)). Conditions: Homo sapiens, MDA-MB-436, […], proliferation of MDA-MB-436 cells, 7 days.
Assay type: cell-based

How did the IC50 turn out when `CNC(=O)c1ccc(N2CCN(Cc3ccc4c(c3)[nH]c(=O)c3ncsc34)CC2)c(C)n1` [Example 4, 7-((4-(2-methyl-6-(methylcarbamoyl)pyridin-3-yl)piperazin-1-yl)methyl)thiazolo[4,5-c]quinolin-4(5H)-one] was run?
The IC50 was 7.69 nM.

How did the IC50 turn out when `CNC(=O)c1ccc(N2CCN(Cc3ccc4c(c3)[nH]c(=O)c3cn[nH]c34)CC2)c(C)n1` [Example 7, 7-((4-(2-methyl-6-(methylcarbamoyl)pyridin-3-yl)piperazin-1-yl)methyl)-1,5-dihydro-4H-pyrazolo[4,3-c]quinolin-4-one] was run?
The IC50 was 5.22 nM.

For `CNC(=O)c1ccc(N2CCN(Cc3ccc4c(c3)[nH]c(=O)c3c4ccn3C)CC2)c(C)n1` [Example 11, 7-((4-(2-methyl-6-(methylcarbamoyl)pyridin-3-yl)piperazin-1-yl)methyl)-3-methyl-3,5-dihydro-4H-pyrrolo[2,3-c]quinolin-4-one], which IC50 is on record?
The IC50 was 11.3 nM.

`CNC(=O)c1ccc(N2CCN(Cc3ccc4c(c3)[nH]c(=O)c3cc[nH]c34)CC2)c(C)n1` [Example 23, 7-((4-(2-methyl-6-(methylcarbamoyl)pyridin-3-yl)piperazin-1-yl)methyl)-1,5-dihydro-4H-pyrrolo[3,2-c]quinolin-4-one] was tested. Which IC50 did it give?
Its IC50 is 1.74 nM.

For `CNC(=O)c1ccc(N2CCN(Cc3ccc4c(c3)[nH]c(=O)c3ccn(C)c34)CC2)c(F)n1` [Example 24, 7-((4-(2-fluoro-6-(methylcarbamoyl)pyridin-3-yl)piperazin-1-yl)methyl)-1-methyl-1,5-dihydro-4H-pyrrolo[3,2-c]quinolin-4-one], which IC50 is on record?
The IC50 was 1.11 nM.

Which IC50 does the source give for `CNC(=O)c1ccc(N2CCN(Cc3ccc4c([nH]c(=O)n5ccnc45)c3F)CC2)c(C)n1` [Example 50, 8-((4-(2-methyl-6-(methylcarbamoyl)pyridin-3-yl)piperazin-1-yl)methyl)-7-fluoroimidazo[1,2-c]quinazolin-5(6H)-one] here?
Its IC50 is 23.6 nM.

For `CNC(=O)c1ccc(N2CCN(Cc3ccc4c([nH]c(=O)c5c(Cl)cnn54)c3F)CC2)c(C)n1` [Example 59, 7-((4-(2-methyl-6-(methylcarbamoyl)pyridin-3-yl)piperazin-1-yl)methyl)-6-fluoro-3-chloro-pyrazolo[1,5-a]quinoxalin-4(5H)-one], which IC50 is on record?
Its IC50 is 2.13 nM.

Which IC50 does the source give for `CNC(=O)c1ccc(N2CCN(Cc3ccc4c(c3)[nH]c(=O)c3n[nH]cc34)CC2)c(C)n1` [Example 70, 7-((4-(2-methyl-6-(methylcarbamoyl)pyridin-3-yl)piperazin-1-yl)methyl)-2,5-dihydro-4H-pyrazolo[3,4-c]quinolin-4-one] here?
The IC50 was 28.9 nM.

How did the IC50 turn out when `CNC(=O)c1ccc(N2CCN(Cc3ccc4c([nH]c(=O)n5nccc45)c3F)CC2)c(F)n1` [Example 73, 8-((4-(2-fluoro-6-(methylcarbamoyl)pyridin-3-yl)piperazin-1-yl)methyl)-7-fluoropyrazolo[1,5-c]quinazolin-5(6H)-one] was run?
Its IC50 is 12.3 nM.

How did the IC50 turn out when `CNC(=O)c1ccc(N2CCN(Cc3ccc4c([nH]c(=O)c5cn(C)nc54)c3F)CC2)c(C)n1` [Example 88, 7-((4-(2-methyl-6-(methylcarbamoyl)pyridin-3-yl)piperazin-1-yl)methyl)-6-fluoro-2-methyl-2,5-dihydro-4H-pyrazolo[4,3-c]quinolin-4-one] was run?
The IC50 was 21.7 nM.

Which IC50 does the source give for `CNC(=O)c1ccc(N2CCN(Cc3ccc4c([nH]c(=O)c5cn(C)nc54)c3F)CC2)c(F)n1` [Example 90, 7-((4-(2-fluoro-6-(methylcarbamoyl)pyridin-3-yl)piperazin-1-yl)methyl)-6-fluoro-2-methyl-2,5-dihydro-4H-pyrazolo[4,3-c]quinolin-4-one] here?
Its IC50 is 28.7 nM.

For `CNC(=O)c1ccc(N2CCN(Cc3cc4[nH]c(=O)c5ocnc5c4cc3F)CC2)c(F)n1` [Example 94, 7-((4-(2-fluoro-6-(methylcarbamoyl)pyridin-3-yl)piperazin-1-yl)methyl)-8-fluorooxazolo[5,4-c]quinolin-4(5H)-one], which IC50 is on record?
Its IC50 is > 100 nM.

`CNC(=O)c1ccc(N2CCN(Cc3ccc4c([nH]c(=O)c5ocnc54)c3F)CC2)c(F)n1` [Example 95, 7-((4-(2-fluoro-6-(methylcarbamoyl)pyridin-3-yl)piperazin-1-yl)methyl)-6-fluorooxazolo[5,4-c]quinolin-4(5H)-one] was tested. Which IC50 did it give?
Its IC50 is > 100 nM.

`CNC(=O)c1ccc(N2CCN(Cc3ccc4c([nH]c(=O)c5c(C)noc54)c3F)CC2)c(F)n1` [Example 96, 7-((4-(2-fluoro-6-(methylcarbamoyl)pyridin-3-yl)piperazin-1-yl)methyl)-3-methyl-6-fluoroisoxazolo[4,5-c]quinolin-4(5H)-one] was tested. Which IC50 did it give?
Its IC50 is 36.7 nM.

Which IC50 does the source give for `CNC(=O)c1ccc(N2CCN(Cc3cc4[nH]c(=O)c5c(C)noc5c4cc3F)CC2)c(F)n1` [Example 97, 7-((4-(2-fluoro-6-(methylcarbamoyl)pyridin-3-yl)piperazin-1-yl)methyl)-3-methyl-8-fluoroisoxazolo[4,5-c]quinolin-4(5H)-one] here?
The IC50 was 9.79 nM.

With `CNC(=O)c1ccc(N2CCN(Cc3ccc4c([nH]c(=O)c5ncn(C)c54)c3F)CC2)c(F)n1` [Example 100, 7-((4-(2-fluoro-6-(methylcarbamoyl)pyridin-3-yl)piperazin-1-yl)methyl)-6-fluoro-1-methyl-1,5-dihydro-4H-imidazo[4,5-c]quinolin-4-one] as the compound, how does the IC50 read?
The IC50 was > 100 nM.

With `CNC(=O)c1ccc(N2CCN(Cc3ccc4c([nH]c(=O)c5occc54)c3F)CC2)c(C(F)F)n1` [Example 101, 7-((4-(2-(difluoromethyl)-6-(methylcarbamoyl)pyridin-3-yl)piperazin-1-yl)methyl)-6-fluorofuro[2,3-c]quinolin-4(5H)-one] as the compound, how does the IC50 read?
Its IC50 is 23 nM.

`CNC(=O)c1ccc(N2CCN(Cc3ccc4c([nH]c(=O)c5occc54)c3Cl)CC2)c(F)n1` [Example 105, 7-((4-(2-fluoro-6-(methylcarbamoyl)pyridin-3-yl)piperazin-1-yl)methyl)-6-chlorofuro[2,3-c]quinolin-4(5H)-one] was tested. Which IC50 did it give?
The IC50 was > 100 nM.

Which IC50 does the source give for `NC(=O)c1ccc(N2CCN(Cc3ccc4c([nH]c(=O)c5occc54)c3F)CC2)c(F)n1` [Example 106, 7-((4-(2-fluoro-6-carbamoylpyridin-3-yl)piperazin-1-yl)methyl)-6-fluorofuro[2,3-c]quinolin-4(5H)-one] here?
The IC50 was 17.5 nM.

`O=c1[nH]c2c(F)c(CN3CCN(c4ccc(-c5nnc[nH]5)nc4F)CC3)ccc2c2ccoc12` [Example 110, 7-((4-(2-fluoro-6-(4H-1,2,4-triazol-3-yl)pyridin-3-yl)piperazin-1-yl)methyl)-6-fluorofuro[2,3-c]quinolin-4(5H)-one] was tested. Which IC50 did it give?
The IC50 was 12.9 nM.

How did the IC50 turn out when `CNC(=O)c1ccc(N2CCN(Cc3ccc4c(c3)[nH]c(=O)c3occc34)CC2)cn1` [Example 113, 7-((4-(6-(methylcarbamoyl)pyridin-3-yl)piperazin-1-yl)methyl)furo[2,3-c]quinolin-4(5H)-one] was run?
Its IC50 is 2.19 nM.

With `CNC(=O)c1ccc(N2CCN(Cc3ccc4c(c3)[nH]c(=O)c3ccoc34)CC2)c(F)n1` [Example 114, 7-((4-(2-fluoro-6-(methylcarbamoyl)pyridin-3-yl)piperazin-1-yl)methyl)furo[3,2-c]quinolin-4(5H)-one] as the compound, how does the IC50 read?
Its IC50 is 1.32 nM.

`CNC(=O)c1ccc(N2CCN(Cc3ccc4c([nH]c(=O)c5oc(C)cc54)c3F)CC2)c(F)n1` [Example 116, 7-((4-(2-fluoro-6-(methylcarbamoyl)pyridin-3-yl)piperazin-1-yl)methyl)-6-fluoro-2-methylfuro[2,3-c]quinolin-4(5H)-one] was tested. Which IC50 did it give?
The IC50 was 7.5 nM.

With `CNC(=O)c1ccc(C2CCN(Cc3ccc4c([nH]c(=O)c5c(C)cnn54)c3F)CC2)c(F)n1` [Example 124, 6-fluoro-7-((4-(2-fluoro-6-(methylcarbamoyl)pyridin-3-yl)piperidin-1-yl)methyl)-3-methylpyrazolo[1,5-a]quinoxalin-4(5H)-one] as the compound, how does the IC50 read?
Its IC50 is 25.5 nM.

Which IC50 does the source give for `CCNC(=O)c1ccc(N2CCN(Cc3ccc4c([nH]c(=O)c5c(C)cnn54)c3F)CC2)c(F)n1` [Example 125, 7-((4-(2-fluoro-6-(ethylcarbamoyl)pyridin-3-yl)piperazin-1-yl)methyl)-6-fluoro-3-methylpyrazolo[1,5-a]quinoxalin-4(5H)-one] here?
The IC50 was 7.24 nM.

Which IC50 does the source give for `CNC(=O)c1ncc(N2CCN(Cc3ccc4c([nH]c(=O)c5c(C)cnn54)c3F)CC2)cc1F` [Example 127, 7-((4-(5-fluoro-6-(methylcarbamoyl)pyridin-3-yl)piperazin-1-yl)methyl)-6-fluoro-3-methylpyrazolo[1,5-a]quinoxalin-4(5H)-one] here?
The IC50 was 55.3 nM.

`CNC(=O)c1ccc(N[C@@H]2CCN(Cc3ccc4c([nH]c(=O)c5c(C)cnn54)c3F)C2)cn1` [Example 134, (R)-6-fluoro-3-methyl-7-((3-((6-(methylcarbamoyl)pyridin-3-yl)amino)pyrrolidin-1-yl)methyl)pyrazolo[1,5-a]quinoxalin-4(5H)-one] was tested. Which IC50 did it give?
The IC50 was > 100 nM.

For `CNC(=O)c1ccc(N[C@@H]2CCN(Cc3ccc4c([nH]c(=O)c5c(C)cnn54)c3F)C2)c(F)n1` [Example 135, (R)-6-fluoro-7-((3-((2-fluoro-6-(methylcarbamoyl)pyridin-3-yl)amino)pyrrolidin-1-yl)methyl)-3-methylpyrazolo[1,5-a]quinoxalin-4(5H)-one], which IC50 is on record?
The IC50 was > 100 nM.

`CNC(=O)c1ccc(N2CCN(Cc3ccc4c(c3)[nH]c(=O)c3nocc34)CC2)c(F)n1` [Example 144, 7-((4-(2-fluoro-6-(methylcarbamoyl)pyridin-3-yl)piperazin-1-yl)methyl)isoxazolo[3,4-c]quinolin-4(5H)-one] was tested. Which IC50 did it give?
The IC50 was 1.9 nM.

How did the IC50 turn out when `CNC(=O)c1ccc(N2CCN(Cc3ccc4c([nH]c(=O)c5cncn54)c3F)CC2)cn1` [Example 145, 7-((4-(6-(methylcarbamoyl)pyridin-3-yl)piperazin-1-yl)methyl)-6-fluoroimidazo[1,5-a]quinoxalin-4(5H)-one] was run?
The IC50 was > 100 nM.

For `CNC(=O)c1ccc(N[C@@H]2CCN(Cc3ccc4c([nH]c(=O)c5occc54)c3F)C2)cn1` [Example 146, (R)-7-((3-((6-(methylcarbamoyl)pyridin-3-yl)amino)pyrrolidin-1-yl)methyl)-6-fluorofuro[2,3-c]quinolin-4(5H)-one], which IC50 is on record?
The IC50 was > 100 nM.

Same assay, conditions: proliferation of MDA-MB-436 cells, 7 days

`CNC(=O)c1ccc(N2CCN(Cc3ccc4c([nH]c(=O)n5nccc45)c3F)CC2)c(C)n1` [Example 119, 8-((4-(2-methyl-6-(methylcarbamoyl)pyridin-3-yl)piperazin-1-yl)methyl)-7-fluoropyrazolo[1,5-c]quinazolin-5(6H)-one] was tested. Which IC50 did it give?
The IC50 was 7.87 nM.
